Assay results: patent US20250145594A1, “MODULATORS OF THE INTEGRATED STRESS PATHWAY” (Calico Life Sciences LLC, priority 2020, published 2025)

System: ATF4 luciferase reporter in HEK293T cells
Experiment: ATF4-Luc assay (in vitro model of VWMD)
Type: cell-based, human
Conditions: Homo sapiens, HEK-293T, 7 h, HEK293T cells carrying the ATF4 luciferase reporter, 1 μg/mL tunicamycin, One Glo luminescence
In short: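 Stable HEK293T line expressing firefly luciferase behind the human ATF4 5′-UTR, treated with 1 μg/mL tunicamycin plus compound for 7 hours. Luminescence read with One Glo; EC50 determined.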

| SMILES | EC50 [nM] |
| --- | --- |
| O=C(NC12CC(n3cc(-c4ccc(C5CC5)cn4)cn3)(C1)C2)[C@H]1C[C@@H](O)c2cc(Cl)ccc2O1 [Compound 570, (2R,4R)-6-chloro-N-{3-[4-(5-cyclopropylpyridin-2-yl)-1H-pyrazol-1-yl]bicyclo[1.1.1]pentan-1-yl}-4-hydroxy-3,4-dihydro-2H-1-benzopyran-2-carboxamide] | < 10 |
| O=C(NC12CC(n3cc(-c4ccc(C(F)(F)F)cn4)cn3)(C1)C2)[C@H]1C[C@@H](O)c2cc(Cl)c(F)cc2O1 [Compound 482, (2R,4R)-6-chloro-7-fluoro-4-hydroxy-N-(3-{4-[5-(trifluoromethyl)pyridin-2-yl]-1H-pyrazol-1-yl}bicyclo[1.1.1]pentan-1-yl)-3,4-dihydro-2H-1-benzopyran-2-carboxamide] | < 10 |
| O=C(NC12CC(n3cc(OCCOC(F)(F)F)cn3)(C1)C2)[C@H]1C[C@@H](O)c2cc(C(F)(F)F)ccc2O1 [Compound 424, (2R,4R)-4-hydroxy-N-(3-{4-[2-(trifluoromethoxy)ethoxy]-1H-pyrazol-1-yl}bicyclo[1.1.1]pentan-1-yl)-6-(trifluoromethyl)-3,4-dihydro-2H-1-benzopyran-2-carboxamide] | < 10 |
| O=C(NC12CC(n3cc(-c4ccc(OC(F)(F)F)cn4)cn3)(C1)C2)[C@H]1C[C@@H](O)c2cc(C(F)(F)F)c(F)cc2O1 [Compound 485, (2R,4R)-7-fluoro-4-hydroxy-N-(3-{4-[5-(trifluoromethoxy)pyridin-2-yl]-1H-pyrazol-1-yl}bicyclo[1.1.1]pentan-1-yl)-6-(trifluoromethyl)-3,4-dihydro-2H-1-benzopyran-2-carboxamide] | < 10 |
| O=C(NC12CC(n3cc(OC[C@H]4C[C@@H](OC(F)(F)F)C4)cn3)(C1)C2)[C@H]1C[C@@H](O)c2cc(Cl)ccc2O1 [Compound 402, (2R,4R)-6-chloro-4-hydroxy-N-[3-(4-{[cis-3-(trifluoromethoxy)cyclobutyl]methoxy}-1H-pyrazol-1-yl)bicyclo[1.1.1]pentan-1-yl]-3,4-dihydro-2H-1-benzopyran-2-carboxamide] | < 10 |
| O=C(NC12CC(n3cc(OCCOC(F)(F)F)cn3)(C1)C2)C1CNc2cc(C(F)(F)F)c(F)cc2O1 (stereo not drawn) [Compound 592, 7-fluoro-N-(3-{4-[2-(trifluoromethoxy)ethoxy]-1H-pyrazol-1-yl}bicyclo[1.1.1]pentan-1-yl)-6-(trifluoromethyl)-3,4-dihydro-2H-1,4-benzoxazine-2-carboxamide] | 10 to 50 |
| O=C(CO[C@H]1C[C@@H](OC(F)(F)F)C1)NC12CC(NC(=O)[C@H]3C[C@@H](O)c4cc(Cl)c(Cl)cc4O3)(C1)C2 [Compound 494, (2R,4R)-6,7-dichloro-4-hydroxy-N-[3-(2-{[(1s,3S)-3-(trifluoromethoxy)cyclobutyl]oxy}acetamido)bicyclo[1.1.1]pentan-1-yl]-3,4-dihydro-2H-1-benzopyran-2-carboxamide] | < 10 |
| COc1cc2cn(C34CC(NC(=O)[C@H]5C[C@@H](O)c6cc(C(F)(F)F)ccc6O5)(C3)C4)nc2cn1 [Compound 499, (2R,4R)-4-hydroxy-N-[3-(5-methoxy-2H-pyrazolo[3,4-c]pyridin-2-yl)bicyclo[1.1.1]pentan-1-yl]-6-(trifluoromethyl)-3,4-dihydro-2H-1-benzopyran-2-carboxamide] | 10 to 50 |
| O=C(N[C@H]1CC[C@H](n2cc(-c3ccc(OC(F)(F)F)cn3)cn2)CC1)[C@H]1C[C@@H](O)c2cc(Cl)ccc2O1 [Compound 481, (2R,4R)-6-chloro-4-hydroxy-N-[(1r,4R)-4-{4-[5-(trifluoromethoxy)pyridin-2-yl]-1H-pyrazol-1-yl}cyclohexyl]-3,4-dihydro-2H-1-benzopyran-2-carboxamide] | < 10 |
| O=C(COc1ccc(Cl)c(F)c1)NC12CC(n3cc(C4CCN(CC(F)(F)F)CC4)cn3)(C1)C2 [Compound 608, 2-(4-chloro-3-fluorophenoxy)-N-(3-{4-[1-(2,2,2-trifluoroethyl)piperidin-4-yl]-1H-pyrazol-1-yl}bicyclo[1.1.1]pentan-1-yl)acetamide] | 10 to 50 |
| O=C(NC12CC(n3cnc(-c4ccc(OC(F)(F)F)c(F)c4F)c3)(C1)C2)[C@H]1C[C@@H](O)c2cc(Cl)ccc2O1 [Compound 391, (2R,4R)-6-chloro-N-(3-{4-[2,3-difluoro-4-(trifluoromethoxy)phenyl]-1H-imidazol-1-yl}bicyclo[1.1.1]pentan-1-yl)-4-hydroxy-3,4-dihydro-2H-1-benzopyran-2-carboxamide] | < 10 |
| O=C(NC12CC(n3cc(-c4ccc(C(F)(F)F)cn4)cn3)(C1)C2)[C@@H]1C[C@@H](O)c2cc(Cl)c(F)cc2O1 [Compound 477, (2S,4R)-6-chloro-7-fluoro-4-hydroxy-N-(3-{4-[5-(trifluoromethyl)pyridin-2-yl]-1H-pyrazol-1-yl}bicyclo[1.1.1]pentan-1-yl)-3,4-dihydro-2H-1-benzopyran-2-carboxamide] | < 10 |
| O=C(NC12CC(n3cc(-c4ccn(C(F)(F)F)n4)cn3)(C1)C2)[C@H]1C[C@@H](O)c2cc(Cl)ccc2O1 [Compound 556, (2R,4R)-6-chloro-4-hydroxy-N-{3-[1-(trifluoromethyl)-1H,1′H-[3,4′-bipyrazol]-1′-yl]bicyclo[1.1.1]pentan-1-yl}-3,4-dihydro-2H-1-benzopyran-2-carboxamide] | < 10 |
| O=C(NC12CC(n3cc(-c4ccc(C5CC5)cn4)cn3)(C1)C2)[C@H]1C[C@@H](O)c2cc(Cl)c(F)cc2O1 [Compound 571, (2R,4R)-6-chloro-N-{3-[4-(5-cyclopropylpyridin-2-yl)-1H-pyrazol-1-yl]bicyclo[1.1.1]pentan-1-yl}-7-fluoro-4-hydroxy-3,4-dihydro-2H-1-benzopyran-2-carboxamide] | < 10 |
| O=C(COc1ccc(Cl)c(F)c1)NC12CC(c3ccc(OCCCOC(F)(F)F)nc3)(C1)C2 [Compound 455, 2-(4-chloro-3-fluorophenoxy)-N-(3-{6-[3-(trifluoromethoxy)propoxy]pyridin-3-yl}bicyclo[1.1.1]pentan-1-yl)acetamide] | 50 to 250 |
| O=C(NC12CC(n3cc(C(=O)N4CC[C@H](OC(F)(F)F)C4)cn3)(C1)C2)[C@H]1C[C@H](O)c2cc(Cl)ccc2O1 [Compound 585, (2R,4S)-6-chloro-4-hydroxy-N-(3-{4-[(3S)-3-(trifluoromethoxy)pyrrolidine-1-carbonyl]-1H-pyrazol-1-yl}bicyclo[1.1.1]pentan-1-yl)-3,4-dihydro-2H-1-benzopyran-2-carboxamide] | < 10 |
| O=C(NC12CC(n3cc(-c4ccc(OC(F)(F)F)cn4)cn3)(C1)C2)[C@H]1C[C@H](O)c2cc(C(F)(F)F)c(F)cc2O1 [Compound 634, (2R,4S)-7-fluoro-4-hydroxy-N-(3-{4-[5-(trifluoromethoxy)pyridin-2-yl]-1H-pyrazol-1-yl}bicyclo[1.1.1]pentan-1-yl)-6-(trifluoromethyl)-3,4-dihydro-2H-1-benzopyran-2-carboxamide] | < 10 |
| C[C@@H](COc1cnn(C23CC(NC(=O)[C@H]4C[C@@H](O)c5cc(Cl)ccc5O4)(C2)C3)c1)OC(F)(F)F [Compound 443, (2R,4R)-6-chloro-4-hydroxy-N-(3-{4-[(2S)-2-(trifluoromethoxy)propoxy]-1H-pyrazol-1-yl}bicyclo[1.1.1]pentan-1-yl)-3,4-dihydro-2H-1-benzopyran-2-carboxamide] | 10 to 50 |
